Experimental data as given in patent US7034053B2, “Phenethanolamine derivatives, compositions, and their use as agonists at atypical beta-adrenoreceptors” (SmithKline Beecham Corporation, priority 2001, dated 2006).

| Compound | melting point |
| --- | --- |
| O=C(O)c1ccsc1-c1cccc(NCCNC[C@H](O)c2cccc(Cl)c2)c1 [Example 5, 2-(3-{[2-(3-Chlorophenyl)-2R-hydroxyl-ethylamino]ethylamino}phenyl)thiophene-3-carboxylic acid] | 275 °C (dec.) |
| O=C(O)c1ccoc1-c1cccc(NCCNC[C@H](O)c2cccc(Cl)c2)c1 [Example 2, 2-(3-{[2-(3-Chlorophenyl)-2R-hydroxyl-ethylamino]ethylamino}phenyl)furan-3-carboxylic acid] | 250 °C (dec.) |
